Laboratory results reported in patent publication US12070509B2, “Nucleic acids and methods of treatment for cystic fibrosis” (Arcturus Therapeutics, Inc., priority 2020, dated 2024).

Target: T1, CFTR channels (Homo sapiens, UniProt P13569)
T1 construct: 1835; Cap1; TEV; Yes; XBG; 53; expressed in transfected cells; host or cells: FRT (Fischer rat thyroid) cells in air-liquid interface culture, transfected with unformulated hCFTR mRNA
Assay: Transepithelial conductance (Gt) in Air-Liquid Interface culture of transfected FRT cells
Assay type: cell-based
Conditions: FRT cells transfected with constructs 2099.1 and 1835.1 (FIG. 12); sequential Forskolin, VX770, Inh-172
Method: Further studies were conducted to assess the activity of hCFTR proteins expressed by selected mRNA constructs and whether these can properly open and close to allow proper ion transport. In these studies, an Air-Liquid Interface (ALI) cell culture model of FRT cells was used to transfect an unformulated subset of codon-optimized hCFTR mRNAs at different doses ranging from 0.5 μg-2 μg of mRNA (the 2 μg dose is not shown) into the FRT cells. ALI is a method of cell culture by which polarized cells are generated with their basal surfaces in contact with media, and the top of the cellular layer is exposed to the air. This model helps to mimic the cellular structure of in vivo airways.
At 24 hours post-transfection, transepithelial conductance (Gt) of the cells over time was measured as an indicator of CFTR activity. Initially, Gt was measured with the transfected or control cells unperturbed. Then, a sequential process of CFTR activation (channel opening), enhancement (gating promotion) and closing of the CFTR channels was performed. The hCFTR constructs used in this study were 1835.1 (SEQ ID NO: 53), 2093.1 (SEQ ID NO: 66), 2095.1 (SEQ ID NO: 68), 2096.1 (SEQ ID NO: 69), and 2099.1 (SEQ ID NO: 72). In addition, controls were performed using a reference sequence of construct 764.1 (SEQ ID NO: 47) and untransfected cells. […]

T1 sequence (P13569 whole entry): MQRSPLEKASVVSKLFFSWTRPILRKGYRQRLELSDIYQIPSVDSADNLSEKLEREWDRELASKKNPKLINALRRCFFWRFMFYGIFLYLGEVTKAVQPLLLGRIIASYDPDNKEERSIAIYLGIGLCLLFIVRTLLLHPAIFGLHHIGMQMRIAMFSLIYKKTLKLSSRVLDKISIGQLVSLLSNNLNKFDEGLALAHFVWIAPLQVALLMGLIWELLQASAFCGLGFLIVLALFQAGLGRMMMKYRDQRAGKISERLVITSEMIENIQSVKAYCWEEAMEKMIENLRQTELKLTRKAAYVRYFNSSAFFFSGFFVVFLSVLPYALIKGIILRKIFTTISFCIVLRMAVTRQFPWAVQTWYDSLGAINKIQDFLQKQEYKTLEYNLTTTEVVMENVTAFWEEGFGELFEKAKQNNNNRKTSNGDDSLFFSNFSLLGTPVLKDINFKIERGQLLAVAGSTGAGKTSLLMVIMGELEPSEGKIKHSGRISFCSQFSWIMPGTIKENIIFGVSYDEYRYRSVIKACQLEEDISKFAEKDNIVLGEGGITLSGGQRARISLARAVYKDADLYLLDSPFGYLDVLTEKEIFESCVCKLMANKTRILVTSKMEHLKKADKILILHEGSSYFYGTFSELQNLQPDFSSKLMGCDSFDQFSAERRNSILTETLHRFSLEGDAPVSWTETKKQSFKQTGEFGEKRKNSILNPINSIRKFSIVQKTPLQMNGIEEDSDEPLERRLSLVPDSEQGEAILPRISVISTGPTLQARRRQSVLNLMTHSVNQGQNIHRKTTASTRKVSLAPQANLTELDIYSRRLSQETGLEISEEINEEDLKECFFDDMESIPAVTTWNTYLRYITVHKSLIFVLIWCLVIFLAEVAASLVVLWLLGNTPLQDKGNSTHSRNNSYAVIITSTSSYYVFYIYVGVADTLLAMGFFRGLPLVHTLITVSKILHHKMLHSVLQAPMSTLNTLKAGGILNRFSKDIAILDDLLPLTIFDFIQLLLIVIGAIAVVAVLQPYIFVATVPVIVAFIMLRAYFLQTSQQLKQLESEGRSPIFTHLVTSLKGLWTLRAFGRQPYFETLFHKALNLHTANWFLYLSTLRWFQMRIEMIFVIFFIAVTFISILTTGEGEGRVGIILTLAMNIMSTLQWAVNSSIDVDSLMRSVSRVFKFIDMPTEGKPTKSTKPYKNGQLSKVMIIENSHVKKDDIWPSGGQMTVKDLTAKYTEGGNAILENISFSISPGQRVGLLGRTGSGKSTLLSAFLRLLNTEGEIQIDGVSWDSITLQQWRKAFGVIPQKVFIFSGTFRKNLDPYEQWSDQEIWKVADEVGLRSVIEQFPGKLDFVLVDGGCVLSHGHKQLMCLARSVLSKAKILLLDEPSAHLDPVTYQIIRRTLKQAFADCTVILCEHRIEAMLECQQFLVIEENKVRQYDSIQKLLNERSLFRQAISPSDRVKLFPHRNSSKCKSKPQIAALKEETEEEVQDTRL

Row | SMILES | Change in Gt on introduction of CFTR modulator
1 | CC(C)(C)c1cc(C(C)(C)C)c(NC(=O)c2c[nH]c3ccccc3c2=O)cc1O [VX770, reference compound] | second increase in Gt
2 | O=C(O)c1ccc(C=C2SC(=S)N(c3cccc(C(F)(F)F)c3)C2=O)cc1 [Inh-172, reference compound] | decline in Gt
